Results on 25 molecules are retold here after patent US9376442B2, “Methylpyrrolopyrimidinecarboxamides” (Takeda GmbH, priority 2009, dated 2016).

Some results are limits rather than exact numbers.

This assay addresses T1, PDE5A1 (Homo sapiens, UniProt O76074).
T1 construct: from tissue; host or cells: human platelets from fresh donor blood (10,000 x g supernatant of sonicated lysate)
Briefly: Inhibition of type 5 phosphodiesterase (PDE5) activity, modified SPA test with human platelet lysate. Format: biochemical. The note with it: 0.5 μM cGMP, read-out: PDE5A1 inhibitory values [measured as −log IC50 (mol/l)] (converted). In outline:
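Scintillation proximity assay with [3H]cGMP tracer at 0.5 μM total cGMP, stopped after 15 min with beads containing IBMX. PDE3 and PDE2 activities suppressed with motapizone (1 μM) and a PDE2 inhibitor (10 nM). Human platelet supernatant served as the enzyme, with compound preincubated 5 min at 37° C; IC50 values from concentration-effect curves.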
Turning to `COc1cc(-c2nc(C)nc3c(C(=O)NC4CCN(C(=O)CO)CC4)c(C)[nH]c23)c(OCC2CC2)cc1F` [Example F109, 4-[2-(Cyclopropylmethoxy)-4-fluoro-5-methoxyphenyl]-N-[1-(hydroxyacetyl)piperidin-4-yl]-2,6-dimethyl-5H-pyrrolo[3,2-d]pyrimidine-7-carboxamide], the IC50 is less than 1 nM. With `CCC(=O)N1CCC(NC(=O)c2c(C)[nH]c3c(-c4cc(F)c(OC)cc4OCC4CC4)ncnc23)CC1` [Example E132, 4-[2-(Cyclopropylmethoxy)-5-fluoro-4-methoxyphenyl]-6-methyl-N-(1-propionylpiperidin-4-yl)-5H-pyrrolo[3,2-d]pyrimidine-7-carboxamide], the IC50 was less than 1 nM. Regarding `COc1cc(OCC2CC2)c(-c2ncnc3c(C(=O)N[C@@H]4CCN(C(=O)CO)C4)c(C)[nH]c23)cc1F` [Example F115, 4-[2-(Cyclopropylmethoxy)-5-fluoro-4-methoxyphenyl]-N-[(3R)-1-glycoloylpyrrolidin-3-yl]-6-methyl-5H-pyrrolo[3,2-d]pyrimidine-7-carboxamide], the IC50 was less than 1 nM. In the case of `CCOc1ccc(F)cc1-c1ncnc2c(C(=O)NC3CCN(C(=O)COC)CC3)c(C)[nH]c12` [Example E54, 4-(2-Ethoxy-5-fluorophenyl)-N-[1-(methoxyacetyl)piperidin-4-yl]-6-methyl-5H-pyrrolo[3,2-d]pyrimidine-7-carboxamide], the IC50 was 1 to 10 nM.

Turning to `Cc1[nH]c2c(-c3ccc(F)cc3OCC3CC3)ncnc2c1C(=O)N[C@@H]1CCN(C(=O)[C@H](C)O)C1` [Example F18, 4-[2-(cyclopropylmethoxy)-4-fluorophenyl]-N-{(3R)-1-[(2S)-2-hydroxypropanoyl]pyrrolidin-3-yl}-6-methyl-5H-pyrrolo[3,2-d]pyrimidine-7-carboxamide], the IC50 was less than 1 nM.

Turning to `Cc1cc(-c2ncnc3c(C(=O)N[C@H]4CC[C@H](NC(=O)CO)CC4)c(C)[nH]c23)c(OCC2CC2)cc1F` [Example F77, 4-[2-(Cyclopropylmethoxy)-4-fluoro-5-methylphenyl]-N-{trans-4-[(hydroxyacetyl)amino]cyclohexyl}-6-methyl-5H-pyrrolo[3,2-d]pyrimidine-7-carboxamide], the IC50 is less than 1 nM. For the molecule `COc1cc(OCC2CC2)c(-c2ncnc3c(C(=O)N[C@@H]4CN(C(C)=O)C[C@H]4O)c(C)[nH]c23)cc1F` (relative stereo) [Example E189, N-[(3R*,4R*)-1-Acetyl-4-hydroxypyrrolidin-3-yl]-4-[2-(cyclopropylmethoxy)-5-fluoro-4-methoxyphenyl]-6-methyl-5H-pyrrolo[3,2-d]pyrimidine-7-carboxamide], the IC50 was less than 1 nM. For the molecule `Cc1[nH]c2c(-c3c(OCC4CC4)ccc4c3OCO4)ncnc2c1C(=O)N[C@@H]1CCN(C(=O)CO)C1` [Example F7, 4-[5-(Cyclopropylmethoxy)-1,3-benzodioxol-4-yl]-N-[(3R)-1-glycoloylpyrrolidin-3-yl]-6-methyl-5H-pyrrolo[3,2-d]pyrimidine-7-carboxamide], the IC50 was less than 1 nM. As to `COc1ccc(-c2ncnc3c(C(=O)N[C@@H]4CN(C(=O)CO)C[C@H]4O)c(C)[nH]c23)c(OCC2CC2)c1` (relative stereo) [Example F39, 4-[2-(Cyclopropylmethoxy)-4-methoxyphenyl]-N-[(3R*,4R*)-1-glycoloyl-4-hydroxypyrrolidin-3-yl]-6-methyl-5H-pyrrolo[3,2-d]pyrimidine-7-carboxamide], the IC50 was less than 1 nM.

As for `COc1ccc(OCC2CC2)c(-c2ncnc3c(C(=O)N[C@@H]4CCN(C(C)=O)C4)c(C)[nH]c23)c1` [Example E75, N-[(3R)-1-acetylpyrrolidin-3-yl]-4-[2-(cyclopropylmethoxy)-5-methoxyphenyl]-6-methyl-5H-pyrrolo[3,2-d]pyrimidine-7-carboxamide], the IC50 is less than 1 nM.

As for `COc1cc(OCC2CC2)c(-c2ncnc3c(C(=O)N[C@@H]4CCN(C(=O)[C@H](C)O)C4)c(C)[nH]c23)cc1F` [Example F116, 4-[2-(Cyclopropylmethoxy)-5-fluoro-4-methoxyphenyl]-N-{(3R)-1-[(2S)-2-hydroxypropanoyl]pyrrolidin-3-yl}-6-methyl-5H-pyrrolo[3,2-d]pyrimidine-7-carboxamide], the IC50 is less than 1 nM. For the molecule `CC(=O)c1ccc(OCC2CC2)c(-c2ncnc3c(C(=O)N[C@H]4CC[C@H](NC(=O)CO)CC4)c(C)[nH]c23)c1` [Example F104, 4-[5-Acetyl-2-(cyclopropylmethoxy)phenyl]-N-{trans-4-[(hydroxyacetyl)amino]cyclohexyl}-6-methyl-5H-pyrrolo[3,2-d]pyrimidine-7-carboxamide], the IC50 is less than 1 nM. The same measure for `COc1ccc(OCC2CC2)c(-c2ncnc3c(C(=O)N[C@@H]4CCN(C(=O)CO)C[C@H]4O)c(C)[nH]c23)c1` (relative stereo) [Example F49, 4-[2-(Cyclopropylmethoxy)-5-methoxyphenyl]-N-[(3R*,4R*)-3-hydroxy-1-(hydroxyacetyl)piperidin-4-yl]-6-methyl-5H-pyrrolo[3,2-d]pyrimidine-7-carboxamide]: less than 1 nM; for `CCC(=O)N[C@H]1CC[C@H](NC(=O)c2c(C)[nH]c3c(-c4cc(C(C)=O)ccc4OCC4CC4)ncnc23)CC1` [Example E167, 4-[5-Acetyl-2-(cyclopropylmethoxy)phenyl]-6-methyl-N-[trans-4-(propanoylamino)cyclohexyl]-5H-pyrrolo[3,2-d]pyrimidine-7-carboxamide]: less than 1 nM; for `COCC(=O)N[C@H]1CC[C@@H](NC(=O)c2c(C)[nH]c3c(-c4cc(OC)c(F)cc4OCC4CC4)ncnc23)CC1` [Example E112, 4-[2-(Cyclopropylmethoxy)-4-fluoro-5-methoxyphenyl]-N-{cis-4-[(methoxyacetyl)amino]cyclohexyl}-6-methyl-5H-pyrrolo[3,2-d]pyrimidine-7-carboxamide]: less than 1 nM. `COc1cc(-c2ncnc3c(C(=O)N[C@@H]4CN(C(=O)CO)C[C@H]4O)c(C)[nH]c23)c(OCC2CC2)cc1F` (relative stereo) [Example F113, 4-[2-(Cyclopropylmethoxy)-4-fluoro-5-methoxyphenyl]-N-[(3R*,4R*)-1-glycoloyl-4-hydroxypyrrolidin-3-yl]-6-methyl-5H-pyrrolo[3,2-d]pyrimidine-7-carboxamide]: the IC50 is less than 1 nM. As for `CCC(=O)N1CCC(NC(=O)c2c(C)[nH]c3c(-c4ccc(OC)cc4OCC4CC4)ncnc23)CC1` [Example E56, 4-[2-(Cyclopropylmethoxy)-4-methoxyphenyl]-6-methyl-N-(1-propionylpiperidin-4-yl)-5H-pyrrolo[3,2-d]pyrimidine-7-carboxamide], the IC50 is less than 1 nM. As to `CC(=O)N1CCC(NC(=O)c2c(C)[nH]c3c(-c4c(OCC5CC5)ccc5c4OCO5)ncnc23)CC1` [Example E1, N-(1-Acetylpiperidin-4-yl)-4-[5-(cyclopropylmethoxy)-1,3-benzodioxol-4-yl]-6-methyl-5H-pyrrolo[3,2-d]pyrimidine-7-carboxamide], the IC50 was less than 1 nM. On to `COc1ccc(-c2ncnc3c(C(=O)N[C@@H]4CCN(C(=O)CO)C4)c(C)[nH]c23)c(OCC2CC2)c1` [Example F37, 4-[2-(Cyclopropylmethoxy)-4-methoxyphenyl]-N-[(3R)-1-glycoloylpyrrolidin-3-yl]-6-methyl-5H-pyrrolo[3,2-d]pyrimidine-7-carboxamide], for which the IC50 was less than 1 nM. The same measure for `COc1cc(OCC2CC2)c(-c2nc(C)nc3c(C(=O)NC4CCN(C(C)=O)CC4)c(C)[nH]c23)cc1F` [Example E172, N-(1-Acetylpiperidin-4-yl)-4-[2-(cyclopropylmethoxy)-5-fluoro-4-methoxyphenyl]-2,6-dimethyl-5H-pyrrolo[3,2-d]pyrimidine-7-carboxamide]: less than 1 nM. In the case of `COCC(=O)N1CC[C@H](O)[C@@H](NC(=O)c2c(C)[nH]c3c(-c4cc(OC)c(F)cc4OCC4CC4)ncnc23)C1` (relative stereo) [Example E118, 4-[2-(cyclopropylmethoxy)-4-fluoro-5-methoxyphenyl]-N-[(3S*,4S*)-4-hydroxy-1-(methoxyacetyl)piperidin-3-yl]-6-methyl-5H-pyrrolo[3,2-d]pyrimidine-7-carboxamide], the IC50 was less than 1 nM. Take `COCC(=O)N[C@H]1CC[C@H](NC(=O)c2c(C)[nH]c3c(-c4cc(OC)c(F)cc4OCC4CC4)ncnc23)CC1` [Example E108, 4-[2-(Cyclopropylmethoxy)-4-fluoro-5-methoxyphenyl]-N-{trans-4-[(methoxyacetyl)amino]cyclohexyl}-6-methyl-5H-pyrrolo[3,2-d]pyrimidine-7-carboxamide]: the IC50 is less than 1 nM. With `CCOC(=O)N[C@H]1CC[C@H](NC(=O)c2c(C)[nH]c3c(-c4c(OCC5CC5)ccc5c4OCO5)ncnc23)CC1` [Example E8, Ethyl {trans-4-[({4-[5-(cyclopropylmethoxy)-1,3-benzodioxol-4-yl]-6-methyl-5H-pyrrolo[3,2-d]pyrimidin-7-yl}carbonyl)amino]cyclohexyl}carbamate], the IC50 is less than 1 nM.

On to `COc1ccc(-c2ncnc3c(C(=O)N[C@@H]4CCN(C(=O)[C@H](C)O)C4)c(C)[nH]c23)c(OCC2CC2)c1` [Example F38, 4-[2-(Cyclopropylmethoxy)-4-methoxyphenyl]-N-{(3R)-1-[(2S)-2-hydroxypropanoyl]pyrrolidin-3-yl}-6-methyl-5H-pyrrolo[3,2-d]pyrimidine-7-carboxamide], for which the IC50 is less than 1 nM. For `CCC(=O)N1CCC(NC(=O)c2c(C)[nH]c3c(-c4ccc(F)cc4OCC4CC4)ncnc23)CC1` [Example E20, 4-[2-(Cyclopropylmethoxy)-4-fluorophenyl]-6-methyl-N-(1-propionylpiperidin-4-yl)-5H-pyrrolo[3,2-d]pyrimidine-7-carboxamide], the IC50 is less than 1 nM.
